Results taken from patent US12110299B2, “Thiazole derivatives and pharmaceutically acceptable salts thereof” (YUNGJIN PHARM. CO., LTD., priority 2018, dated 2024).

What was measured:
[1] = test system: MDA-MB-468 cells; assay: Anti-proliferative effect on MDA-MB-468 cells, inhibition rate at 100 nM (tetrazolium salt method); assay type: cell-based; conditions: Homo sapiens, 72 hours
Experimental: Representative compounds of the present invention were tested at different concentrations (from 1000 nM to 25 nM) to assess their ability to inhibit the proliferation of MDA-MB-468 cells. Cells were grown in RPMI 1640 (Welgene)+10% FBS (Gibco)+1% penicillin/streptomycin (Gibco) and cultured at 37° C. in a humidified chamber in the presence of 5% CO2.
MDA-MB-468 cells cultured in 96-well cell culture plates were treated with representative compounds of the present invention and cultured for 72 hours.

[2] = test system: HepG2 cells; assay: HepG2 cell viability assay (CCK-8); assay type: cell-based, human; conditions: Homo sapiens, HepG2, 72 h
Experimental: The ability to inhibit the proliferation of HepG2 cells, which are human hepatocellular carcinoma cells, was measured through the in vitro cell viability assay. Cells were cultured at 37° C. in a humidified condition in the presence of 5% CO2 using a culture medium of MEM (Welgene)+10% FBS (Gibco)+1% penicillin/streptomycin (Gibco). […] Cell viability was measured by CCK-8 method using tetrazolium salt, and the ability of the compounds according to the present invention to inhibit cancer cell proliferation was calculated.

[3] = test system: MDA-MB-468 cells; assay: Anti-proliferative effect on MDA-MB-468 cells, IC50 (MTT); assay type: cell-based; conditions: Homo sapiens, MDA-MB-468, 72 h
Experimental: The compounds of the present invention were tested at different concentrations (from 1000 nM to 1 nM) to assess their ability for inhibiting the proliferation of MDAMB-468 cells. Cells were cultivated in RPMI 1640 (Welgene)+10% FBS (Gibco)+1% penicillin/streptomycin (Gibco) and cultured at 37° C. in a humidified chamber in the presence of 5% C02.
MDA-MB-468 cells cultured in 96-well cell culture plates were treated with the compounds of the present invention and incubated for 72 hours.

| SMILES | inhibition at 0.1 µM [1] | IC50 [2] | IC50 [3] |
| --- | --- | --- | --- |
| C=CC(=O)Nc1ccc(-c2cccc(C(C)C(=O)Nc3ncc(C)s3)c2)cn1 (stereo not drawn) [Example 1, N-(5-(3-(1-((5-methylthiazol-2-yl)amino)-1-oxopropan-2-yl)phenyl)pyridin-2-yl)acrylamide] | 54% | – | – |
| C=CC(=O)Nc1ccc(-c2cccc(C(C)C(=O)Nc3ncc(C4CC4)s3)c2)cn1 (stereo not drawn) [Example 2, N-(5-(3-(1-((5-cyclopropylthiazol-2-yl)amino)-1-oxopropan-2-yl)phenyl)pyridin-2-yl)acrylamide] | 50% | 15 nM | 104 nM |
| C=CC(=O)Nc1ccc(-c2cccc(C(C)C(=O)Nc3ncc(CC)s3)c2)cn1 (stereo not drawn) [Example 4, N-(5-(3-(1-((5-ethylthiazol-2-yl)amino)-1-oxopropan-2-yl)phenyl)pyridin-2-yl)acrylamide] | 56% | – | – |
| C=CC(=O)Nc1ccc(-c2ccc(F)c(C(C)C(=O)Nc3ncc(C#N)s3)c2)nn1 (stereo not drawn) [Example 11, N-(6-(3-(1-((5-cyanothiazol-2-yl)amino)-1-oxopropane-2-yl)-4-fluorophenyl)pyridazin-3-yl)acrylamide] | 53% | – | – |
| C[C@H](C(=O)Nc1ncc(C2CC2)s1)c1cccc(-c2ccc(NC(=O)/C=C/CN(C)C)nc2)c1 [Example 15] | 73% | – | 46 nM |
| C=CC(=O)Nc1cncc(-c2cccc([C@H](C)C(=O)Nc3ncc(C4CC4)s3)c2)n1 [Example 16] | 53% | – | – |
| CCc1cnc(NC(=O)[C@@H](C)c2cccc(-c3ccc(NC(=O)/C=C/CN(C)C)nc3)c2)s1 [Example 17, (S,E)-4-(dimethylamino)-N-(5-(3-(1-((5-ethylthiazol-2-yl)amino)-1-oxopropan-2-yl)phenyl)pyridin-2-yl)but-2-enamide] | 70% | – | 26 nM |
| C=CC(=O)Nc1cnc(-c2cccc([C@H](C)C(=O)Nc3ncc(C4CC4)s3)c2)cn1 [Example 22] | 72% | – | – |
| C=CC(=O)Nc1cnc(-c2cccc([C@H](C)C(=O)Nc3ncc(C#N)s3)c2)cn1 [Example 25, (S)-N-(5-(3-(1-((5-cyanothiazol-2-yl)amino)-1-oxopropan-2-yl)phenyl)pyrazin-2-yl)acrylamide] | 71% | – | – |
| C=CC(=O)Nc1ncc(-c2cccc([C@H](C)C(=O)Nc3ncc(C4CC4)s3)c2)cn1 [Example 27] | 74% | – | – |
| C=CC(=O)Nc1ccc(-c2cccc([C@H](C)C(=O)Nc3ncc(C4CC4)s3)c2)nn1 [Example 28] | 74% | – | – |
| C=CC(=O)Nc1ncc(-c2cccc([C@H](C)C(=O)Nc3ncc(C4CC4)s3)c2)cc1F [Example 29] | 75% | – | – |
| C=CC(=O)Nc1ncc(-c2cccc([C@H](C)C(=O)Nc3ncc(C#N)s3)c2)cc1F [Example 33, (S)-N-(5-(3-(1-((5-cyanothiazol-2-yl)amino)-1-oxopropan-2-yl)phenyl)-3-fluoropyridin-2-yl)acrylamide] | 59% | – | – |
| C=CC(=O)Nc1cnc(-c2cccc([C@H](C)C(=O)Nc3ncc(C(C)C)s3)c2)cn1 [Example 36, (S)-N-(5-(3-(1-((5-isopropylthiazol-2-yl)amino)-1-oxopropan-2-yl)phenyl)pyrazin-2-yl)acrylamide] | 64% | – | – |
| C=CC(=O)Nc1ccc(-c2cccc([C@H](C)C(=O)Nc3ncc(C(F)(F)F)s3)c2)cn1 [Example 38, (S)-N-(5-(3-(1-oxo-1-((5-(trifluoromethyl)thiazol-2-yl)amino)propan-2-yl)phenyl)pyridin-2-yl)acrylamide] | 64% | – | – |
| C=CC(=O)Nc1ccc(-c2cccc([C@H](C)C(=O)Nc3ncc(C(F)(F)F)s3)c2)nn1 [Example 39, (S)-N-(6-(3-(1-oxo-1-((5-(trifluoromethyl)thiazol-2-yl)amino)propan-2-yl)phenyl)pyridazin-3-yl)acrylamide] | 67% | – | – |
| C=CC(=O)Nc1ccc(-c2cccc([C@H](C)C(=O)Nc3ncc(C(C)C)s3)c2)nn1 [Example 40, (S)-N-(6-(3-(1-((5-isopropylthiazol-2-yl)amino)-1-oxopropan-2-yl)phenyl)pyridazin-3-yl)acrylamide] | 64% | – | – |

| SMILES | inhibition at 0.1 µM [1] | IC50 [2] | IC50 [3] |
| --- | --- | --- | --- |
| C=CC(=O)Nc1cnc(-c2cncc(C(C)C(=O)Nc3ncc(C(C)C)s3)c2)cn1 (stereo not drawn) [Example 47, N-(5-(5-(1-((5-isopropylthiazol-2-yl)amino)-1-oxopropan-2-yl)pyridin-3-yl)pyrazin-2-yl) acrylamide] | 72% | – | – |
| C=CC(=O)Nc1ccc(-c2cncc(C(C)C(=O)Nc3ncc(C(F)(F)F)s3)c2)nn1 (stereo not drawn) [Example 49, N-(6-(5-(1-oxo-1-((5-(trifluoromethyl)thiazol-2-yl)amino)propan-2-yl)pyridin-3-yl)pyridazin-3-yl)acrylamide] | 67% | – | – |
| C=CC(=O)Nc1ccc(-c2cc(C(C)C(=O)Nc3ncc(C4CC4)s3)ccn2)cn1 (stereo not drawn) [Example 50, N-(4-(1-((5-cyclopropylthiazol-2-yl)amino)-1-oxopropan-2-yl)-[2,3′-bipyridine]-6′-yl)acrylamide] | 66% | – | – |
| C=CC(=O)Nc1ccc(-c2csc(C(C)C(=O)Nc3ncc(C(F)(F)F)s3)c2)cn1 (stereo not drawn) [Example 53, N-(5-(5-(1-oxo-1-((5-(trifluoromethyl)thiazol-2-yl)amino)propan-2-yl)thiophen-3-yl)pyridin-2-yl)acrylamide] | 51% | – | – |
| C=CC(=O)Nc1cnc(-c2cncc(C(C)C(=O)Nc3ncc(Cl)s3)c2)cn1 (stereo not drawn) [Example 61, N-(5-(5-(1-((5-chlorothiazol-2-yl)amino)-1-oxopropan-2-yl)pyridin-3-yl)pyrazine-2-yl)acrylamide] | 73% | – | – |
| C[C@H](C(=O)Nc1ncc(C(F)(F)F)s1)c1cccc(-c2cnc(NC(=O)/C=C/CN(C)C)c(C(F)(F)F)c2)c1 [Example 111, (S,E)-4-(dimethylamino)-N-(5-(3-(1-oxo-1-((5-(trifluoromethyl)thiazol-2-yl)amino)propan-2-yl)phenyl)-3-(trifluoromethyl)pyridin-2-yl)but-2-enamide] | – | 4 nM | 32 nM |
| Cc1cc(-c2cccc([C@H](C)C(=O)Nc3ncc(C(F)(F)F)s3)c2)cnc1NC(=O)/C=C/CN(C)C [Example 112, (S,E)-4-(dimethylamino)-N-(3-methyl-5-(3-(1-oxo-1-((5-(trifluoromethyl)thiazol-2-yl)amino)propan-2-yl)phenyl)pyridin-2-yl)but-2-enamide] | – | 8.7 nM | 59 nM |
| C[C@H](C(=O)Nc1ncc(C(F)(F)F)s1)c1cccc(-c2cnc(NC(=O)/C=C/CN(C)C)c(Cl)c2)c1 [Example 113, (S,E)-N-(3-chloro-5-(3-(1-oxo-1-((5-(trifluoromethyl)thiazol-2-yl)amino)propan-2-yl)phenyl)pyridin-2-yl)-4-(dimethylamino)but-2-enamide] | – | 4.2 nM | 35 nM |
| CCN(CC)C/C=C/C(=O)Nc1cnc(-c2cccc([C@H](C)C(=O)Nc3ncc(C(F)(F)F)s3)c2)cn1 [Example 114, (S,E)-4-(diethylamino)-N-(5-(3-(1-oxo-1-((5-(trifluoromethyl)thiazol-2-yl)amino)propan-2-yl)phenyl)pyrazin-2-yl)but-2-enamide] | – | 12 nM | 56 nM |
| C[C@H](C(=O)Nc1ncc(C(F)(F)F)s1)c1cccc(-c2cnc(NC(=O)/C=C/CN3CC[C@@H](F)C3)cn2)c1 [Example 115, (E)-4-((R)-3-fluoropyrrolidin-1-yl)-N-(5-(3-((S)-1-oxo-1-((5-(trifluoromethyl)thiazol-2-yl)amino)propan-2-yl)phenyl)pyrazin-2-yl)but-2-enamide] | – | 12 nM | 75 nM |
| CCc1cnc(NC(=O)[C@@H](C)c2cccc(-c3cnc4c(c3)CCN4C(=O)/C=C/CN(C)C)c2)s1 [Example 122, (S,E)-2-(3-(1-(4-(dimethylamino)but-2-enoyl)-2,3-dihydro-1H-pyrrolo[2,3-b]pyridin-5-yl)phenyl)-N-(5-ethylthiazol-2-yl)propanamide] | – | 38 nM | 34 nM |
| CCc1cnc(NC(=O)[C@@H](C)c2cccc(-c3cnc(NC(=O)/C=C/CN4CC5CC4CO5)c(C#N)c3)c2)s1 (stereo partly drawn) [Example 123, (E)-4-(2-oxa-5-azabicyclo[2.2.1]heptan-5-yl)-N-(3-cyano-5-(3-((S)-1-((5-ethylthiazol-2-yl)amino)-1-oxopropan-2-yl)phenyl)pyridin-2-yl)but-2-enamide] | – | 11 nM | 24 nM |
| CCc1cnc(NC(=O)[C@@H](C)c2cccc(-c3cnc(N(C)C(=O)/C=C/CN(C)C)c(C#N)c3)c2)s1 [Example 132, (S,E)-N-(3-cyano-5-(3-(1-((5-ethylthiazol-2-yl)amino)-1-oxopropan-2-yl)phenyl)pyridin-2-yl)-4-(dimethylamino)-N-methylbut-2-enamide] | – | 9.5 nM | 32 nM |
| CCc1cnc(NC(=O)[C@@H](C)c2cccc(-c3cnc(NC(=O)/C=C/CN4CCOCC4)c(C#N)c3)c2)s1 [Example 135, (S,E)-N-(3-cyano-5-(3-(1-((5-ethylthiazol-2-yl)amino)-1-oxopropan-2-yl)phenyl)pyridin-2-yl)-4-morpholinobut-2-enamide] | – | 10 nM | 48 nM |
| CCc1cnc(NC(=O)C(C)c2cncc(-c3cnc(NC(=O)/C=C/CN(C)C)c(C#N)c3)c2)s1 (stereo not drawn) [Example 137, (E)-N-(5-cyano-5′-(1-((5-ethylthiazol-2-yl)amino)-1-oxopropan-2-yl)-[3,3′-bipyridin]-6-yl)-4-(dimethylamino)but-2-enamide] | – | 18 nM | 47 nM |
| CCc1cnc(NC(=O)C(CC)c2cccc(-c3cnc(NC(=O)/C=C/CN(C)C)c(C#N)c3)c2)s1 (stereo not drawn) [Example 138, (E)-N-(3-cyano-5-(3-(1-((5-ethylthiazol-2-yl)amino)-1-oxobutan-2-yl)phenyl)pyridin-2-yl)-4-(dimethylamino)but-2-enamide] | – | 52 nM | 100 nM |
